The IC50 is the concentration needed to halve the response being measured. Read a low IC50 as greater potency in that assay. For orientation: Ki means the equilibrium dissociation constant of an inhibitor or competing ligand from its target. Higher therefore signals a looser hold on the target. A word on the Hill coefficient: it is a measure of the steepness of the concentration-response curve.

Holding throughout (format): biochemical
The target of one assay is T1, pig kidney FBPase L56A (Sus scrofa, UniProt P00636, L57A).
T1 construct: His6 (C); made in house; host or cells: Escherichia coli BL21 (DE3)
T1 sequence (P00636 1-338 L57A): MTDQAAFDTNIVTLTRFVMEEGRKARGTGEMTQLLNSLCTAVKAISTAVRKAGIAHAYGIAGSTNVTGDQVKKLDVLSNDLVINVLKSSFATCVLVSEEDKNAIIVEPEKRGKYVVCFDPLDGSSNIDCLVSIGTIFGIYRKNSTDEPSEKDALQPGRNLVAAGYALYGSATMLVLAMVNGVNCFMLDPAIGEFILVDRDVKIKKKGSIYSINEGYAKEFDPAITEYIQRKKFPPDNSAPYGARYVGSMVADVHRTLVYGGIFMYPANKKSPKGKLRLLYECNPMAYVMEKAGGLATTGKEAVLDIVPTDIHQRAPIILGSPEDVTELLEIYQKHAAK
As to the kind of experiment: Malachite Green kinetic assay, L56A mutant. The following applies: enzyme L56A; for IC50: FBP substrate 10 to 50 µM. As to the method: (§1) For the kinetic assay, a standard curve was obtained from an ammonium molybdate Malachite Green inorganic phosphate assay (OD660 nm). The purified FBPase protein was dialyzed ×3 in 50 mM Tris buffer at pH 7.5 at 4°C. For enzyme concentration, absorbency values were recorded for all five mutant proteins using spectrophotometer readings at OD280 nm. To quantitate enzyme concentration, the enzymes were calculated based on the quantity of micrograms per microliter (µg/µl) present. Final concentration of WT and mutant enzymes was between 2.5 and 5.0 µg/µl. Using a colorimetric assay as described below, specific activity (SA) was determined. At last, all kinetic and binding assays described below were performed in 50 mM Tris pH 7.5.
(§2) Kinetic assays were performed for WT and mutant enzymes to identify functional differences between the WT enzyme and the mutants. […] Readings recorded at OD660 nm for each enzyme were applied to the standard curve equation. Micromoles of inorganic phosphate were calculated to determine the SA of mutant enzymes.
(§3) For each clone, the kinetic assay was performed in duplicates of triplicates. Malachite Geen was used to detect inorganic phosphate. Two separate clones were processed independently of the same mutant. All kinetic data were fit to symmetric sigmoidal curve using Origin software based on methods previously described [[27–29]]. More specifically, for kinetic parameters established via curve fitting (shown in Tables 1–3; and in Figure 5A,B), the equation y = d + (a − d)/1 + (x/c)^b was used where ‘x’ is represented by apparent Michelis constant (Km) when y = Vmax. […] P-values were significant at <0.001 and represent a comparison with the WT enzyme.

In the next assay the target is T2, pig kidney FBPase K112A (Sus scrofa, UniProt P00636, K113A).
T2 construct: His6 (C); made in house; host or cells: Escherichia coli BL21 (DE3)
T2 sequence (P00636 1-338 K113A): T1 sequence (P00636 1-338 L57A) with A57L, K113A
The assay can be described thus: Malachite Green kinetic assay, K112A mutant. The note with it: for IC50: FBP substrate 10 to 50 µM. As to the method: as §1, §2, §3

A further assay has as its target T3, pig kidney FBPase M248D (Sus scrofa, UniProt P00636, M249D).
T3 construct: His6 (C); made in house; host or cells: Escherichia coli BL21 (DE3)
T3 sequence (P00636 1-338 M249D): T1 sequence (P00636 1-338 L57A) with A57L, M249D
As to the kind of experiment: Malachite Green kinetic assay, M248D mutant. The note with it: for IC50: FBP substrate 10 to 50 µM. As for the experimental part: as §1, §2, §3

The next assay deals with T4, pig kidney FBPase L73A (Sus scrofa, UniProt P00636, L74A).
T4 construct: His6 (C); made in house; host or cells: Escherichia coli BL21 (DE3)
T4 sequence (P00636 1-338 L74A): T1 sequence (P00636 1-338 L57A) with A57L, L74A
The assay can be described thus: Malachite Green kinetic assay, L73A mutant. The following applies: enzyme L73A; for IC50: FBP substrate 10 to 50 µM. As to the method: as §1, §2, §3

The target of another assay is T5, pig kidney FBPase WT (Sus scrofa, UniProt P00636).
T5 construct: His6 (C); made in house; host or cells: Escherichia coli BL21 (DE3)
T5 sequence (P00636 1-338): T1 sequence (P00636 1-338 L57A) with A57L
The assay can be described thus: Malachite Green kinetic assay, WT enzyme. The note with it: for IC50: FBP substrate 10 to 50 µM. As to the method:
as §1, §2, §3

[1] abbreviates: association (binding) constant from saturation curve.

Where a chain is given by its changes, count along the chain named.

Consider `Nc1ncnc2c1ncn2[C@@H]1O[C@H](COP(=O)(O)O)[C@@H](O)[C@H]1O` [AMP], for which the “AMP Hill coefficient” value at pig kidney FBPase L56A is on record as 2.3 (± 0.2); on pig kidney FBPase M248D (enzyme M248D) it was 2.5 (± 0.2); on pig kidney FBPase L73A, 2.1 (± 0.2); at pig kidney FBPase WT, 2.2 (± 0.1). In addition, the half-maximal inhibitory concentration (IC50) against pig kidney FBPase L56A stood at 7.35 µM; at pig kidney FBPase K112A (enzyme K112A_1), 68.5 µM; at pig kidney FBPase K112A (enzyme K112A_2), 52.3 µM; on pig kidney FBPase M248D (enzyme M248D), 7.2 µM; at pig kidney FBPase L73A, 6.95 µM; at pig kidney FBPase WT it was 7.5 µM.

For `O=P(O)(O)OC[C@H]1O[C@@](CO)(OP(=O)(O)O)[C@@H](O)[C@@H]1O` [F2,6-BP, fructose-2,6-bisphosphate], the Ki at pig kidney FBPase L56A amounted to 1.25 µM; on pig kidney FBPase K112A (enzyme K112A) it was 0.24 µM; at pig kidney FBPase M248D (enzyme M248D), 1.5 µM; at pig kidney FBPase L73A it was 1.35 µM; on pig kidney FBPase WT, 0.25 µM. The IC50 amounted to 7.5 µM against pig kidney FBPase L56A; 1.5 µM against pig kidney FBPase K112A (enzyme K112A_1); 1.5 µM at pig kidney FBPase K112A (enzyme K112A_2); 10.5 µM on pig kidney FBPase M248D (enzyme M248D); 7.25 µM against pig kidney FBPase L73A; 1.5 µM against pig kidney FBPase WT.

As to `[Mg+2]` [Mg^2+, magnesium], the Ka at pig kidney FBPase L56A (setting [1]) was 0.52(± 0.13) mM; on pig kidney FBPase K112A (enzyme K112A, association (binding) constant from saturation curve) it was 0.51 (± 0.15) mM; on pig kidney FBPase M248D (enzyme M248D, association (binding) constant from saturation curve) it was 0.08 (± 0.02) mM; at pig kidney FBPase L73A (setting [1]), 0.48 (± 0.17) mM; on pig kidney FBPase WT (setting [1]), 0.50 (± 0.18) mM. Also, the Hill coefficient on pig kidney FBPase L56A (for magnesium) is on record as 2.75 (± 0.16); on pig kidney FBPase K112A (enzyme K112A, for magnesium), 1.98 (± 0.15); on pig kidney FBPase M248D (enzyme M248D, for magnesium), 2.20 (± 0.17); on pig kidney FBPase L73A (for magnesium), 2.95 (± 0.17); at pig kidney FBPase WT (for magnesium), 2.10 (± 0.15). Moreover, the “decrease in Ka for magnesium binding” value at pig kidney FBPase M248D (enzyme M248D vs WT) is given as 6.25.

The values are drawn from paper PMC6386767, “Characterization of recombinant fructose-1,6-bisphosphatase gene mutations: evidence of inhibition/activation of FBPase protein by gene mutation” (Bioscience Reports, 2019).
